In patent publication US20160084855A1, “Compositions and Methods for Modulation and Detection of Immune and Inflammatory Responses” (UNIVERSITY OF CONNECTICUT, priority 2013, published 2016):

What was measured:
[1] = Recovery of 3-OH isoC17:0 fatty acid from brains of mice with EAE (GC-MS); assay type: in vivo, mouse; details: mice that received PE DHC and had a disease score greater than 3.0, versus PBS or EtOH controls
Procedure: Mice treated with PBS, EtOH or with 25 ng, 250 ng, or 2.5 μg PE DHC were sacrificed after day 20 post-EAE immunization. The brains were removed and extracted for phospholipids according to the method of Bligh and Dyer as previously described in Nichols “Distribution of 3-hydroxy iC17:0 in subgingival plaque and gingival tissue samples: Relationship to adult periodontitis” Infect. Immun. 62:3753-3760 (1994). Lipid extracts were dissolved in hexane isopropanol:water (6:8:0.75, v/v/v/) and three 0.5 mg aliquots were dispensed into glass tubes supplemented with 30 ng of isobranched C20:0. […] Lipids were treated to form pentofluorobenzyl ester, trimethylsilyl ether derivatives and analyzed by negative ion chemical ionization GC-MS, as described in Nichols (1994). Fatty acid recovery was quantified by selected ion monitoring for characteristic fatty acid negative ions. The data were expressed as picograms of 3-OH isobranched (iso)C17:0 per 0.5 mg of total brain lipid extracted.
The cumulative disease index (CDI) was obtained by summing the daily average disease scores through Day 20. A mean of these daily disease scores (Mean Daily Disease) (+/−SEM) was calculated based on the 20 days of observation. […] Bacterial fatty acid levels in brain lipid extracts for each treatment group were evaluated using least squares linear regression analysis that included calculation of correlation coefficients. […]

bone marrow DCs (BMDCs) = assay: Stimulation of bone marrow dendritic cells, IL-6 ELISA and surface activation markers; assay type: cell-based, mouse; details: for IL-6 secretion: plate-bound LPS 1 μg, MMP 10 μg, PE DHC 2.5 μg, 18 hrs
Procedure: Bone marrow cells from C57BL/6 and TLR2^−/− mice were cultured at 2×10^5 cells/ml in RPMI containing 10% FCS, 2-ME, and 20 ng/ml recombinant murine GM-CSF for 9 days. Bone marrow DCs (BMDCs) were harvested at Day 9 and were greater than 80% CD11c+. LPS (1 μg), MMP (10 μg) (a bacterial lipoprotein and known TLR-2 ligand (Bachem H-9460), PE DHC (2.5 μg) or 70% EtOH, all in 20 ul volumes, were allowed to dry in the wells of a 24-well plate overnight prior to the addition of BMDCs. BMDCs were cultured in the ligand-bound 24-well plates at 1×10^6 cells/ml in RPMI containing GM-CSF. After 18 hrs, culture supernatants were harvested and tested for IL-6 via ELISA.
The effects of PE DHC on antigen presenting cell (APC) activation in vitro were examined Dendritic cells (BMDCs) (>85% CD11c+) were derived from the bone marrow of WT or TLR2^−/− mice and cultured either alone or with EtOH, LPS, MMP (a TLR2 ligand), or PE DHC. After 18 hrs supernatants were assayed for IL-6. […] BMDCs were also assayed for expression of the surface activation markers B7.2 and MHC class II.

## phosphoethanolamine dihydroceramide [PE DHC]
[1]
  Brain level of 3-OH isoC17:0 fatty acid: higher levels of 3-OH isoC17:0 fatty acid
Bone marrow DCs (BMDCs); TLR2−/− BMDCs
  IL-6 secretion: did not result in IL-6 secretion
Bone marrow DCs (BMDCs); WT BMDCs
  IL-6 secretion: levels of IL-6 secretion that were almost equivalent to that seen with LPS
Bone marrow DCs (BMDCs); WT and TLR2−/− BMDCs
  Expression of surface activation markers B7.2 and MHC class II: increased MHC II and B7.2 expression on WT but not TLR2^−/− BMDCs
